Measurements: patent US11377464B2, “Galactoside inhibitor of galectins” (Galecto Biotech AB, priority 2015, dated 2022)

What was measured:
[1] = system: galectins; conditions: cited from earlier work
[2] = molecular target: galectin-3 (Homo sapiens (Human), UniProt P17931); assay: Fluorescence anisotropy assay: compound as inhibitor of the interaction between galectin and a fluorescein tagged saccharide probe; assay type: binding; conditions: 50 nM galectin-3, 100 nM albumin for high affinity compounds
galectin-3, sequence (P17931 whole entry): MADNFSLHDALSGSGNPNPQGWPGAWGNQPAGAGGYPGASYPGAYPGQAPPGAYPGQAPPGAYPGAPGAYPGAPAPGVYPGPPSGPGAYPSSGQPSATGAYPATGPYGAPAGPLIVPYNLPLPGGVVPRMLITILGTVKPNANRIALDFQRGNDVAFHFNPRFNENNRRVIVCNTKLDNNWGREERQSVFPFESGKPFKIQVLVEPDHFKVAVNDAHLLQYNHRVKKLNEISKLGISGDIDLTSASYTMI
Experimental: 100 nM albumin was included as a carrier to prevent protein loss at such low concentration of galectin.

| SMILES | affinity relative to lactose [1] | Kd [2] |
| --- | --- | --- |
| O=C[C@H](O)[C@@H](O)[C@@H](O)[C@H](O)CO [D-galactose, D-(+)-galactose] | 50-100 times lower | – |
| O=C(NCC(F)(F)F)c1cn([C@@H]2C(O)[C@@H](Sc3ccc(Cl)c(Cl)c3)OC(CO)[C@@H]2O)nn1 (stereo in doubt) [Example 98] | – | 560 nM |
